# Data published in patent publication US20210236443A1, “METHOD OF TREATMENT OF NON-ALCOHOLIC STEATOHEPATITIS, NASH” (KRISH BIOTECH RESEARCH PRIVATE LIMITED, priority 2018, published 2021).
# Assays:
# MCP-1 = MCP-1 release in LPS-stimulated RAW 264.7 cells; assay type: cell-based; conditions: Mus musculus, RAW264.7, LPS 10 ng/ml, 2.5 hours, compound pre-incubation 1 hour
# Method: (§1) Assay for TNFα and MCP-1 Release in RAW 264.7 Cells:
# (§2) Cells were seeded at a density of 50000 cells/well/100 μl in a 96 well plate and left overnight in the CO2 incubator under normal cell culture conditions for adherence. Next day, old media was removed and fresh media added per well with compounds in duplicate for 1 hour with 0.1% DMSO. Cells were stimulated with LPS (Lipopolysaccharides) at 10 ng/ml and incubated at cell culture conditions for 2.5 hours. Post incubation, the supernatant was collected in fresh 96 well plate and stored at −80 degree for TNF-α, and MCP-1 estimation.
# (§3) The dose-response curve was analyzed using Sigma Plot/Graph Pad. The IC50 (concentration of the test compounds where 50% of compounds' maximal activity is observed) values were calculated from the dose-response curve.
# TNFα = TNFα release in LPS-stimulated RAW 264.7 cells; assay type: cell-based; conditions: Mus musculus, RAW264.7, LPS 10 ng/ml, 2.5 hours, compound pre-incubation 1 hour, read-out: TNF-alpha IC50
# Method: as §1, §2, §3
Structure (SMILES),IC50 (MCP-1) [µM],IC50 (TNFα) [µM]
"O=C(O)CCCc1ccc(OCc2cc(F)ccc2-c2ccc(C3CC3)s2)cc1 [SI. No. 8, 4-(4-((2-(5-Cyclopropylthiophen-2-yl)-S-fluorobenzyl)oxy)phenyl)butanoic acid]",2.04,> 10
"CC1(c2ccc(-c3ccc(F)cc3COc3ccc(CCCC(=O)O)cc3)cc2)CC1 [SI. No. 2, 4-(4-((4-Fluoro-4′-(1-methylcyclopropyl)-[1,1′-biphenyl]-2-yl)methoxy)phenyl)butanoic acid]",0.29,5.65
"O=C(O)CCCc1ccc(OCc2cc(F)ccc2-c2ncc(C3CC3)s2)cc1 [SI. No. 24, 4-(4-((2-(5-Cyclopropylthiazol-2-yl)-S-fluorobenzyl)oxy)phenyl)butanoic acid]",0.23,0.63
"CC1(c2ccc(-c3ccc(F)cc3COc3ccc(CCCC(=O)O)cc3)s2)CC1 [SI. No. 20, 4-(4-((5-Fluoro-2-(5-(1-methylcyclopropyl)thiophen-2-yl)benzyl)oxy)phenyl) butanoic acid]",1.08,0.66
